The text below walks through data of US20250129067A1 (Progentos Therapeutics, Inc., priority 2021, published 2025).

In general, IC50 refers to the point on the concentration scale where inhibition reaches its midpoint.

One data set concerns the target PDGFRα (Homo sapiens (Human), UniProt P16234). Put plainly: PDGFRα kinase enzyme assay (Promega PDGFRα Kinase Enzyme System, ADP-Glo). Conditions: 11-point dose response, 10,000 nM to 0.169 nM, 150 uM ATP, BLQ = below limit of quantitation; for IC50: read-out: IC50 Values on PDGFRα Kinase Inhibition, IC50. It is filed as biochemical. The procedure, abridged: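 Read-out was ADP-Glo: remaining ATP depleted, ADP converted to luminescence and compared with a standard curve.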
Background: ADP-Glo turns the ADP formed in a reaction into a luminescent signal.

Data set [1] has as its system Oligodendrocyte progenitor cells (OPCs). In words: In vitro OPC differentiation assay, GPR17 expression (immunocytochemistry). The note with it: 3 μM (10× concentration, final 0.3 μM); 72 hours; fold change over vehicle.

Sequence of PDGFRα (P16234 24-1089): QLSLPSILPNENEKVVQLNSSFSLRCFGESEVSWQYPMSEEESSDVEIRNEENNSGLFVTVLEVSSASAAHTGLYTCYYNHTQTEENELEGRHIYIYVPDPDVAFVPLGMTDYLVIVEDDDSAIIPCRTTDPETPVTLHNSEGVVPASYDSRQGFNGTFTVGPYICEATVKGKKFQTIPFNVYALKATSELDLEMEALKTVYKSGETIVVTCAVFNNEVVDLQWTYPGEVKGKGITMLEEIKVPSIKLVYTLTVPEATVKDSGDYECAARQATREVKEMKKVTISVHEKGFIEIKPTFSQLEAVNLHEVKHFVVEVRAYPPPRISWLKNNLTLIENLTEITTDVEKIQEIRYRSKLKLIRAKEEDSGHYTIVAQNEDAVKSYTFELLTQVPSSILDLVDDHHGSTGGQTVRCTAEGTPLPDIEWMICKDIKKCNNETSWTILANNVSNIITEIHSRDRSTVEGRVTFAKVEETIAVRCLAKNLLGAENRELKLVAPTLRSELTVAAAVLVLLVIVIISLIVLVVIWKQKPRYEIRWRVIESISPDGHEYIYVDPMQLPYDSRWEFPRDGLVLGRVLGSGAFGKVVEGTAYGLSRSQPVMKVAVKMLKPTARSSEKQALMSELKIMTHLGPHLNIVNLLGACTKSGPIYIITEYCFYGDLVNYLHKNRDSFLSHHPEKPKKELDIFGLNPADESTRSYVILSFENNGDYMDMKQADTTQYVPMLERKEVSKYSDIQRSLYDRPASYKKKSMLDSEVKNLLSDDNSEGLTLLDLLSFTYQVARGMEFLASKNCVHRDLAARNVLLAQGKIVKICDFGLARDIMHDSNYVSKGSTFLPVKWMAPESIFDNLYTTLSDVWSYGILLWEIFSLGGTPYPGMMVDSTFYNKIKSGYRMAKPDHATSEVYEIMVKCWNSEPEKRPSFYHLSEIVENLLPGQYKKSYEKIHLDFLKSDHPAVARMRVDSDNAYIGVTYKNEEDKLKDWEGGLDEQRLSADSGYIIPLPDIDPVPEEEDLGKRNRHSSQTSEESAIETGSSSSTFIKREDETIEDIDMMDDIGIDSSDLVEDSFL

Regarding `CCC(O)c1cnc(N2CCN(c3cnn4cc(-c5cnn(C)c5)ccc34)CC2)nc1` (centres unmarked) [Compound 287, 1-(2-{4-[6-(1-methyl-1H-pyrazol-4-yl)pyrazolo[1,5-a]pyridin-3-yl]piperazin-1-yl}pyrimidin-5-yl)propan-1-ol], the IC50 on PDGFRα amounted to 2470 nM. In data set [1], the “GPR17 Fold Induction (Over Vehicle; 3 μM)” value (“GPR17 Fold Induction” below) worked out at 6.48.
Consider `C[C@@H](NC(=O)N1CCN(c2cnn3cc(-c4cnn(C)c4)ccc23)CC1)c1ccc(C(F)(F)F)cc1` [Compound 288, 4-[6-(1-methyl-1H-pyrazol-4-yl)pyrazolo[1,5-a]pyridin-3-yl]-N-{(1R)-1-[4-(trifluoromethyl)phenyl]ethyl}piperazine-1-carboxamide], for which the “IC50 Values on PDGFRα Kinase Inhibition, IC50 (nM)” value at PDGFRα is “BLQ”. Besides, the “GPR17 Fold Induction” value in data set [1] is given as 5.92.
For the molecule `C[C@@H](OC(=O)N1CCN(c2cnn3cc(-c4cnn(C)c4)ccc23)CC1)c1ccncc1` [Compound 289, (R)-1-(pyridin-4-yl)ethyl 4-(6-(1-methyl-1H-pyrazol-4-yl)pyrazolo[1,5-a]pyridin-3-yl)piperazine-1-carboxylate], the IC50 at PDGFRα amounted to 430 nM. Further, the “GPR17 Fold Induction” value in data set [1] stood at 7.44.
Turning to `[2H]C1([2H])N(C(=O)O[C@H](C)c2ccc(Cl)cc2)C([2H])([2H])C([2H])([2H])N(c2cnn3cc(-c4cnn(C)c4)ccc23)C1([2H])[2H]` [Compound 290, (R)-1-(4-chlorophenyl)ethyl 4-(6-(1-methyl-1H-pyrazol-4-yl)pyrazolo[1,5-a]pyridin-3-yl)piperazine-1-carboxylate-2,2,3,3,5,5,6,6-d8], the IC50 on PDGFRα worked out at 0.56 nM. In addition, in data set [1], the “GPR17 Fold Induction” value was 10.47.
Regarding `Cn1cc(-c2ccc3c(N4CCN(S(=O)(=O)NCc5ccc(Cl)cc5)CC4)cnn3c2)cn1` [Compound 292, N-(4-chlorobenzyl)-4-(6-(1-methyl-1H-pyrazol-4-yl)pyrazolo[1,5-a]pyridin-3-yl)piperazine-1-sulfonamide], the half-maximal inhibitory concentration (IC50) at PDGFRα was 50 nM. Further, the “GPR17 Fold Induction” value in data set [1] is given as 9.78.
As to `C[C@@H](NS(=O)(=O)N1CCN(c2cnn3cc(-c4cnn(C)c4)ccc23)CC1)c1ccc(Cl)cc1` [Compound 293, (R)-N-(1-(4-chlorophenyl)ethyl)-4-(6-(1-methyl-1H-pyrazol-4-yl)pyrazolo[1,5-a]pyridin-3-yl)piperazine-1-sulfonamide], at PDGFRα, the IC50 was 5250 nM. For the same molecule, the “GPR17 Fold Induction” value in data set [1] amounted to 7.29.
Take `Cn1cc(-c2ccc3c(N4CCN(S(=O)(=O)NCc5ccc(C(F)(F)F)cc5)CC4)cnn3c2)cn1` [Compound 294, 4-(6-(1-methyl-1H-pyrazol-4-yl)pyrazolo[1,5-a]pyridin-3-yl)-N-(4-(trifluoromethyl)benzyl)piperazine-1-sulfonamide]: at PDGFRα, the IC50 is 5.96 nM. Moreover, the “GPR17 Fold Induction” value in data set [1] came to 9.58.
With `Cn1cc(-c2cnn3c(N4CCN(C(=O)NCc5ccc(C(F)(F)F)cc5)CC4)cnc3c2)cn1` [Compound 295, 4-(7-(1-methyl-1H-pyrazol-4-yl)imidazo[1,2-b]pyridazin-3-yl)-N-(4-(trifluoromethyl)benzyl)piperazine-1-carboxamide], on PDGFRα, the IC50 was 31.7 nM. In addition, the “GPR17 Fold Induction” value in data set [1] is reported as 8.65.
Take `Cn1cc(-c2cnn3c(N4CCN(S(=O)(=O)NCc5ccc(C(F)(F)F)cc5)CC4)cnc3c2)cn1` [Compound 296, 4-(7-(1-methyl-1H-pyrazol-4-yl)imidazo[1,2-b]pyridazin-3-yl)-N-(4-(trifluoromethyl)benzyl)piperazine-1-sulfonamide]: on PDGFRα, the IC50 came to 397 nM. For the same molecule, the “GPR17 Fold Induction” value in data set [1] amounted to 10.65.
Turning to `CCC(O)c1ccc2c(N3CCN(C(=O)OC(C)(C)C)CC3)cnn2c1` (centres unmarked) [Compound 298, tert-butyl 4-(6-(1-hydroxypropyl)pyrazolo[1,5-a]pyridin-3-yl)piperazine-1-carboxylate], at PDGFRα, the IC50 was more than 10000 nM. In addition, the “GPR17 Fold Induction” value in data set [1] is on record as 1.56.
`Cn1cc(-c2ccc3c(C(O)CCc4ncc(Cc5ccccc5)cn4)cnn3c2)cn1` (centres unmarked) [Compound 299, 3-(5-benzylpyrimidin-2-yl)-1-(6-(1-methyl-1H-pyrazol-4-yl)pyrazolo[1,5-a]pyridin-3-yl)propan-1-ol]: the IC50 on PDGFRα is more than 10000 nM. Also, the “GPR17 Fold Induction” value in data set [1] is listed as 1.43.
For `Cn1cc(-c2ccc3c(N4CC=C(c5ncc(Cc6ccccc6)cn5)CC4)cnn3c2)cn1` [Compound 300, 3-(4-(5-benzylpyrimidin-2-yl)-3,6-dihydropyridin-1 (2H)-yl)-6-(1-methyl-1H-pyrazol-4-yl)pyrazolo[1,5-a]pyridine], in that order: 3550 nM and 1.24.
In the case of `Cn1cc(-c2ccc3c(N4CCN(c5ncc(Cc6ncon6)cn5)CC4)cnn3c2)cn1` [Compound 301, 3-((2-(4-(6-(1-methyl-1H-pyrazol-4-yl)pyrazolo[1,5-a]pyridin-3-yl)piperazin-1-yl)pyrimidin-5-yl)methyl)-1,2,4-oxadiazole], the half-maximal inhibitory concentration (IC50) on PDGFRα is more than 10000 nM. Besides, in data set [1], the “GPR17 Fold Induction” value amounted to 2.96.
As for `Cn1cc(-c2ccc3c(N4CCN(c5ncc(Cc6ccsc6)cn5)CC4)cnn3c2)cn1` [Compound 302, 6-(1-methyl-1H-pyrazol-4-yl)-3-(4-(5-(thiophen-3-ylmethyl)pyrimidin-2-yl)piperazin-1-yl)pyrazolo[1,5-a]pyridine], on PDGFRα, the IC50 amounted to 137 nM. The “GPR17 Fold Induction” value in data set [1] came to 8.86.
As to `Cn1cc(-c2ccc3c(N4CCN(c5cnc(Cc6ccccc6)cn5)CC4)cnn3c2)cn1` [Compound 303, 3-(4-(5-benzylpyrazin-2-yl)piperazin-1-yl)-6-(1-methyl-1H-pyrazol-4-yl)pyrazolo[1,5-a]pyridine], on PDGFRα, the IC50 is more than 10000 nM. Moreover, in data set [1], the “GPR17 Fold Induction” value is 2.52.
Consider `CC(C)(C)OC(=O)N1CCN(c2cnn3cc(C4CCOC4)ccc23)CC1` (centres unmarked) [Compound 304, tert-butyl 4-(6-(tetrahydrofuran-3-yl)pyrazolo[1,5-a]pyridin-3-yl)piperazine-1-carboxylate], for which the half-inhibitory concentration (IC50) at PDGFRα was more than 10000 nM. Besides, the “GPR17 Fold Induction” value in data set [1] came out at 1.77.
As for `Cn1cc(-c2ccc3c(N4CCN(c5nnc(Cc6ccccc6)s5)CC4)cnn3c2)cn1` [Compound 306, 2-benzyl-5-(4-(6-(1-methyl-1H-pyrazol-4-yl)pyrazolo[1,5-a]pyridin-3-yl)piperazin-1-yl)-1,3,4-thiadiazole], at PDGFRα, the IC50 was 2.31 nM. Besides, the “GPR17 Fold Induction” value in data set [1] turned out to be 4.37.
Consider `Cn1cc(-c2ccc3c(N4CCN(C(=O)OC5CC(F)(F)C5)CC4)cnn3c2)cn1` [Compound 307, 3,3-difluorocyclobutyl 4-[6-(1-methyl-1H-pyrazol-4-yl)pyrazolo[1,5-a]pyridin-3-yl]piperazine-1-carboxylate], for which the IC50 at PDGFRα was 2150 nM. Also, in data set [1], the “GPR17 Fold Induction” value stood at 4.20.
Consider `Cn1cc(-c2ccc3c(N4CCN(C(=O)OCC5CC(F)(F)C5)CC4)cnn3c2)cn1` [Compound 308, (3,3-difluorocyclobutyl)methyl 4-[6-(1-methyl-1H-pyrazol-4-yl)pyrazolo[1,5-a]pyridin-3-yl]piperazine-1-carboxylate], for which the IC50 on PDGFRα amounted to 2110 nM. For the same molecule, in data set [1], the “GPR17 Fold Induction” value came out at 3.67.
